# Reference: US8673908B2, “Kynurenine production inhibitor” (Kyowa Hakko Kirin Co., Ltd., priority 2008, dated 2014)
# System: kynurenine production in IFN-γ-treated KATO-III cells
# Test: Inhibitory activity on kynurenine production (Test Example 1)
# Assay type: cell-based
# Details: Homo sapiens, IFN-γ treatment, culture for 96 hours, read-out: IC50 value, inhibition of kynurenine production
# Method in brief: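 Read-out is absorbance at 480 nm of medium treated with trichloroacetic acid, then p-dimethylaminobenzaldehyde, to quantify kynurenine. DMSO-only wells with and without IFN-γ serve as references. Cells were KATO-III, 2,000 per well, 96 h at 37 °C/5% CO2 with compound (DMSO ≤0.1%) and IFN-γ at 31.25 ng/mL in the added suspension.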
row,SMILES,IC50
1,"CC(Oc1nc2ccccc2nc1NS(=O)(=O)c1ccccc1Cl)C(C)(C)C (stereo not shown) [Compound 231, 2-chloro-N-[3-(3,3-dimethylbutan-2-yloxy)quinoxalin-2-yl]-benzenesulfonamide]",1000 to 10000 nM
2,"CCOCC(C)Oc1nc2ccccc2nc1NS(=O)(=O)c1ccccc1Cl (stereo not shown) [Compound 232, 2-chloro-N-[3-(1-ethoxypropan-2-yloxy)quinoxalin-2-yl]-benzenesulfonamide]",1000 to 10000 nM
3,"COC1(COc2nc3ccccc3nc2NS(=O)(=O)c2ccccc2Cl)CCOCC1 [Compound 247, 2-chloro-N-{3-[(4-methoxytetrahydro-2H-pyran-4-yl)methoxy]-quinoxalin-2-yl}benzenesulfonamide]",1000 to 10000 nM
4,"N#CC1(COc2nc3ccccc3nc2NS(=O)(=O)c2ccccc2Cl)CCOCC1 [Compound 250, 2-chloro-N-{3-[(4-cyanotetrahydro-2H-pyran-4-yl)methoxy]-quinoxalin-2-yl}benzenesulfonamide]",1000 to 10000 nM
5,"CC1(COc2nc3ccccc3nc2NS(=O)(=O)c2ccccc2Cl)COCOC1 [Compound 251, 2-chloro-N-{3-[(5-methyl-1,3-dioxan-5-yl)methoxy]-quinoxalin-2-yl}benzenesulfonamide]",1000 to 10000 nM
6,"Cc1cc2nc(NS(=O)(=O)c3ccccc3Cl)c(OC(c3cccnc3)C(F)(F)F)nc2cc1C (stereo not shown) [Compound 260, 2-chloro-N-{6,7-dimethyl-3-[2,2,2-trifluoro-1-(pyridin-3-yl)ethoxy]quinoxalin-2-yl}benzenesulfonamide]",1000 to 10000 nM
7,"O=CCCNS(=O)(=O)Nc1nc2ccccc2nc1OC(c1cccnc1)C(F)(F)F (stereo not shown) [Compound 273, N-{3-[2,2,2-trifluoro-1-(pyridin-3-yl)ethoxy]quinoxalin-2-yl}-N′-(3-oxopropyl)-sulfuric diamide]",1000 to 10000 nM
8,"CCCS(=O)(=O)Nc1nc2ccccc2nc1OC(c1cncn1C)C(F)(F)F (stereo not shown) [Compound 277, N-{3-[2,2,2-trifluoro-1-(1-methyl-1H-imidazol-5-yl)ethoxy]-quinoxalin-2-yl}propane-1-sulfonamide]",1000 to 10000 nM
9,"CCCNS(=O)(=O)Nc1nc2ccccc2nc1OC(c1cncs1)C(F)(F)F (stereo not shown) [Compound 281, N-{3-[2,2,2-trifluoro-1-(thiazol-5-yl)ethoxy]quinoxalin-2-yl}-N′-propyl-sulfuric diamide]",< 1000 nM
10,"CCCNS(=O)(=O)Nc1nc2ccccc2nc1OC(c1cncn1C)C(F)(F)F (stereo not shown) [Compound 282, N-{3-[2,2,2-trifluoro-1-(1-methyl-1H-imidazol-5-yl)ethoxy]-quinoxalin-2-yl}-N′-propyl-sulfuric diamide]",< 1000 nM
11,"CCCNS(=O)(=O)Nc1nc2ccccc2nc1OC(c1ccc(Cl)nc1)C(F)(F)F (stereo not shown) [Compound 283, N-{3-[1-(6-chloropyridin-3-yl)-2,2,2-trifluoroethoxy]-quinoxalin-2-yl}-N′-propyl-sulfuric diamide]",< 1000 nM
12,"CCCNS(=O)(=O)Nc1nc2ccccc2nc1OC(c1ccc(C)[n+]([O-])c1)C(F)(F)F (stereo not shown) [Compound 284, 2-methyl-5-{2,2,2-trifluoro-1-[3-(N-propylsulfamoylamino)-quinoxalin-2-yloxy]ethyl}pyridine 1-oxide]",< 1000 nM
13,"Cc1ccc(C(Oc2nc3ccccc3nc2NS(=O)(=O)NC2CC2)C(F)(F)F)cn1 (stereo not shown) [Compound 285, N-{3-[2,2,2-trifluoro-1-(6-methylpyridin-3-yl)ethoxy]-quinoxalin-2-yl}-N′-cyclopropyl-sulfuric diamide]",< 1000 nM
14,"O=S(=O)(Nc1nc2ccccc2nc1OC(c1cncs1)C(F)(F)F)NC1CC1 (stereo not shown) [Compound 286, N-{3-[2,2,2-trifluoro-1-(thiazol-5-yl)ethoxy]quinoxalin-2-yl}-N′-cyclopropyl-sulfuric diamide]",< 1000 nM
15,"Cn1cncc1C(Oc1nc2ccccc2nc1NS(=O)(=O)NC1CC1)C(F)(F)F (stereo not shown) [Compound 287, N-{3-[2,2,2-trifluoro-1-(1-methyl-1H-imidazol-5-yl)ethoxy]-quinoxalin-2-yl}-N′-cyclopropyl-sulfuric diamide]",1000 to 10000 nM
16,"O=S(=O)(Nc1nc2ccccc2nc1OC(c1ccc(Cl)nc1)C(F)(F)F)NC1CC1 (stereo not shown) [Compound 288, N-{3-[1-(6-chloropyridin-3-yl)-2,2,2-trifluoroethoxy]-quinoxalin-2-yl}-N′-cyclopropyl-sulfuric diamide]",< 1000 nM
17,"Cc1ccc(C(Oc2nc3ccccc3nc2NS(=O)(=O)NC2CC2)C(F)(F)F)c[n+]1[O-] (stereo not shown) [Compound 289, 5-{1-[3-(N-cyclopropylsulfamoylamino)quinoxalin-2-yloxy]-2,2,2-trifluoroethyl}-2-methylpyridine 1-oxide]",1000 to 10000 nM
18,"CCCS(=O)(=O)Nc1nc2ccccc2nc1OC(c1cccc(C#N)c1)C(F)(F)F (stereo not shown) [Compound 290, N-{3-[1-(3-cyanophenyl)-2,2,2-trifluoroethoxy]quinoxalin-2-yl}propane-1-sulfonamide]",< 1000 nM
19,"CCCNS(=O)(=O)Nc1nc2ccccc2nc1OC(c1cccc(C#N)c1)C(F)(F)F (stereo not shown) [Compound 291, N-{3-[1-(3-cyanophenyl)-2,2,2-trifluoroethoxy]quinoxalin-2-yl}-N′-propyl-sulfuric diamide]",< 1000 nM

# The remaining lines, values ahead:
row,IC50,SMILES
1,< 1000 nM,"CC(C)C(Oc1nc2ccccc2nc1NS(=O)(=O)c1cccc(Cl)c1Cl)C(C)C [Compound 226, 2,3-dichloro-N-[3-(2,4-dimethylpentan-3-yloxy)quinoxalin-2-yl]benzenesulfonamide]"
2,< 1000 nM,"CC(CN1CCOCC1)Oc1nc2ccccc2nc1NS(=O)(=O)c1ccccc1Cl (stereo not shown) [Compound 230, 2-chloro-N-[3-(1-morpholinopropan-2-yloxy)quinoxalin-2-yl]-benzenesulfonamide]"
3,< 1000 nM,"CCC(=O)C(CC)Oc1nc2ccccc2nc1NS(=O)(=O)c1ccccc1Cl (stereo not shown) [Compound 237, 2-chloro-N-[3-(4-oxohexan-3-yloxy)quinoxalin-2-yl]benzenesulfonamide]"
4,< 1000 nM,"O=S(=O)(Nc1nc2ccccc2nc1OC(c1cccnc1)c1cccnc1)c1ccccc1Cl [Compound 242, 2-chloro-N-[3-(dipyridin-3-ylmethoxy)quinoxalin-2-yl]-benzenesulfonamide]"
5,< 1000 nM,"O=S(=O)(Nc1nc2ccccc2nc1OC(c1cccnc1)c1cncs1)c1ccccc1Cl (stereo not shown) [Compound 243, 2-chloro-N-{3-[pyridin-3-yl(thiazol-5-yl)methoxy]-quinoxalin-2-yl}benzenesulfonamide]"
6,< 1000 nM,"CCC1(COc2nc3ccccc3nc2NS(=O)(=O)c2ccccc2Cl)CCOCC1 [Compound 245, 2-chloro-N-{3-[(4-ethyltetrahydro-2H-pyran-4-yl)methoxy]-quinoxalin-2-yl}benzenesulfonamide]"
7,< 1000 nM,"CC1(COc2nc3ccccc3nc2NS(=O)(=O)c2ccccc2Cl)CCOCC1 [Compound 246, 2-chloro-N-{3-[(4-methyltetrahydro-2H-pyran-4-yl)methoxy]-quinoxalin-2-yl}benzenesulfonamide]"
8,< 1000 nM,"Cc1ccc2nc(NS(=O)(=O)c3ccccc3Cl)c(OC(c3cccnc3)C(F)(F)F)nc2c1 (stereo not shown) [Compound 262, 2-chloro-N-{6-methyl-3-[2,2,2-trifluoro-1-(pyridin-3-yl)-ethoxy]quinoxalin-2-yl}benzenesulfonamide]"
9,< 1000 nM,"O=S(=O)(Nc1nc2cc3ccccc3cc2nc1OC(c1cccnc1)C(F)(F)F)c1ccccc1Cl (stereo not shown) [Compound 263, 2-chloro-N-{3-[2,2,2-trifluoro-1-(pyridin-3-yl)ethoxy]-benzo[g]quinoxalin-2-yl}benzenesulfonamide]"
10,< 1000 nM,"O=S(=O)(Nc1nc2cc(Cl)c(Cl)cc2nc1OC(c1cccnc1)C(F)(F)F)c1ccccc1Cl (stereo not shown) [Compound 264, 2-chloro-N-{6,7-dichloro-3-[2,2,2-trifluoro-1-(pyridin-3-yl)ethoxy]quinoxalin-2-yl}benzenesulfonamide]"
11,< 1000 nM,"Cc1cccc2nc(OC(c3cccnc3)C(F)(F)F)c(NS(=O)(=O)c3ccccc3Cl)nc12 (stereo not shown) [Compound 265, 2-chloro-N-{8-methyl-3-[2,2,2-trifluoro-1-(pyridin-3-yl)-ethoxy]quinoxalin-2-yl}benzenesulfonamide]"
12,< 1000 nM,"Cc1cccc2nc(NS(=O)(=O)c3ccccc3Cl)c(OC(c3cccnc3)C(F)(F)F)nc12 (stereo not shown) [Compound 266, 2-chloro-N-{5-methyl-3-[2,2,2-trifluoro-1-(pyridin-3-yl)-ethoxy]quinoxalin-2-yl}benzenesulfonamide]"
13,< 1000 nM,"O=S(=O)(Nc1nc2ccccc2nc1OC(C1CCSCC1)C(F)(F)F)c1ccccc1Cl (stereo not shown) [Compound 267, 2-chloro-N-{3-[2,2,2-trifluoro-1-(tetrahydro-2H-thiopyran-4-yl)ethoxy]quinoxalin-2-yl}benzenesulfonamide]"
14,< 1000 nM,"CCOC(CCNS(=O)(=O)Nc1nc2ccccc2nc1OC(c1cccnc1)C(F)(F)F)OCC (stereo not shown) [Compound 272, N-{3-[2,2,2-trifluoro-1-(pyridin-3-yl)ethoxy]quinoxalin-2-yl}-N′-(3,3-diethoxypropyl)-sulfuric diamide]"
15,< 1000 nM,"C#CCNS(=O)(=O)Nc1nc2ccccc2nc1OC(c1cccnc1)C(F)(F)F (stereo not shown) [Compound 274, N-{3-[2,2,2-trifluoro-1-(pyridin-3-yl)ethoxy]quinoxalin-2-yl}-N′-(2-propynyl)-sulfuric diamide]"
16,< 1000 nM,"CCCS(=O)(=O)Nc1nc2ccccc2nc1OC(c1cncs1)C(F)(F)F (stereo not shown) [Compound 276, N-{3-[2,2,2-trifluoro-1-(thiazol-5-yl)ethoxy]quinoxalin-2-yl}propane-1-sulfonamide]"
17,< 1000 nM,"CCCS(=O)(=O)Nc1nc2ccccc2nc1OC(c1ccc(Cl)nc1)C(F)(F)F (stereo not shown) [Compound 278, N-{3-[1-(6-chloropyridin-3-yl)-2,2,2-trifluoroethoxy]-quinoxalin-2-yl}propane-1-sulfonamide]"
18,< 1000 nM,"CCCNS(=O)(=O)Nc1nc2ccccc2nc1OC(c1ccc(C)nc1)C(F)(F)F (stereo not shown) [Compound 280, N-{3-[2,2,2-trifluoro-1-(6-methylpyridin-3-yl)ethoxy]-quinoxalin-2-yl}-N′-propyl-sulfuric diamide]"
